# According to patent publication US8927531B2, “Indanyloxydihydrobenzofuranylacetic acids” (Boehringer Ingelheim International GmbH, priority 2013, dated 2015):
# Target: human GPR40 receptor (Homo sapiens, UniProt O14842)
# Assay: IP1 accumulation measurements using the IPOne assay system in 1321N1 cells stably expressing human GPR40 receptor
# Assay type: cell-based
# Conditions: stimulation 1 h at 37° C.
# Method: IP1 accumulation measurements using the IPOne assay system—1321N1 cells stably expressing human GPR40 receptor (Euroscreen, Belgium) are seeded 24 h before the assay in white 384-well plates in culture medium containing 10% FCS, 1% Na-Pyruvate and 400 μg/mL G418. IP1 is assayed according to the manufacturer's description (Cisbio Bioassays, France). In brief, the assay is started by substitution of the culture medium by stimulation buffer (Hepes 10 mM, CaCl2 1 mM, MgCl2 0.5 mM, KCl 4.2 mM, NaCl 146 mM, glucose 5.5 mM and LiCl 50 mM, pH 7.4). Cells are stimulated for 1 h at 37° C., 5% CO2 by addition of the compounds that are diluted in stimulation buffer containing LiCl. Assays are stopped by adding HTRF-conjugates (IP1-d2 and Anti-IP1 cryptate Tb) and lysis buffer, provided by the manufacturer. After an incubation time of 1 h at room temperature plates are measured using an EnVision™, Perkin Elmer. The obtained fluorescence ratios at 665/615 […] are then used to calculate the pEC50 values using Assay Explorer 3.3 Software (Accelrys, Inc.) by interpolation using an IP1 reference curve and subsequent sigmoidal curve fitting allowing for a variable hill slope.
# Chain of human GPR40 receptor (O14842 whole entry): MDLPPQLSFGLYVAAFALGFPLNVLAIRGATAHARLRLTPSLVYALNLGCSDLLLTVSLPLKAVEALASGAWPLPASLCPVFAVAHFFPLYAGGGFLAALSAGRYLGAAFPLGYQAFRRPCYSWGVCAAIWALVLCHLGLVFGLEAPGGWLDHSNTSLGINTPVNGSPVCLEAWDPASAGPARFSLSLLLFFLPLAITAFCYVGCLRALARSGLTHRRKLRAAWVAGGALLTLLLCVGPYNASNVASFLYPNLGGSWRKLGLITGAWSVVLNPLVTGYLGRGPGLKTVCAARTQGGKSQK
row,SMILES,EC50 [nM]
1,"O=C(O)C[C@@H]1COc2cc(O[C@@H]3CCc4c3ccc(C(F)(F)F)c4CN3CCOCC3)ccc21 [Example 1, {(S)-6-[(R)-4-Morpholin-4-ylmethyl-5-trifluoromethyl-indan-1-yloxy]-2,3-dihydro-benzofuran-3-yl}-acetic acid]",3
2,"CC(C)(C)OC(=O)N1CCN(Cc2c(C(F)(F)F)ccc3c2CC[C@H]3Oc2ccc3c(c2)OC[C@H]3CC(=O)O)CC1 [Example 2, {(S)-6-[(R)-4-(4-tert-Butoxycarbonyl-piperazin-1-ylmethyl)-5-trifluoromethyl-indan-1-yloxy]-2,3-dihydro-benzofuran-3-yl}-acetic acid]",20
3,"O=C(O)C[C@@H]1COc2cc(O[C@@H]3CCc4c3ccc(C(F)(F)F)c4CN3CCSCC3)ccc21 [Example 3, {(S)-6-[(R)-4-Thiomorpholin-4-ylmethyl-5-trifluoromethyl-indan-1-yloxy]-2,3-dihydro-benzofuran-3-yl}-acetic acid]",3
4,"O=C(O)C[C@@H]1COc2cc(O[C@@H]3CCc4c3ccc(C(F)(F)F)c4CN3CCCC3)ccc21 [Example 4, {(S)-6-[(R)-4-Pyrrolidin-1-ylmethyl-5-trifluoromethyl-indan-1-yloxy]-2,3-dihydro-benzofuran-3-yl}-acetic acid]",92
5,"O=C(O)C[C@@H]1COc2cc(O[C@@H]3CCc4c3ccc(C(F)(F)F)c4CN3CCCCC3)ccc21 [Example 5, {(S)-6-[(R)-4-Piperidin-1-ylmethyl-5-trifluoromethyl-indan-1-yloxy]-2,3-dihydro-benzofuran-3-yl}-acetic acid]",5
6,"Cc1nc2c(s1)CN(Cc1c(C(F)(F)F)ccc3c1CC[C@H]3Oc1ccc3c(c1)OC[C@H]3CC(=O)O)CC2 [Example 6, {(S)-6-[(R)-4-(2-Methyl-4,5,6,7-tetrahydro-thiazolo[5,4-c]pyridin-5-ylmethyl)-5-trifluoromethyl-indan-1-yloxy]-2,3-dihydro-benzofuran-3-yl}-acetic acid]",2
7,"O=C(O)C[C@@H]1COc2cc(O[C@@H]3CCc4c3ccc(C(F)(F)F)c4CN3CCC(F)(F)CC3)ccc21 [Example 7, {(S)-6-[(R)-4-(4,4-Difluoro-piperidin-1-ylmethyl)-5-trifluoromethyl-indan-1-yloxy]-2,3-dihydro-benzofuran-3-yl}-acetic acid]",3
8,"O=C(O)C[C@@H]1COc2cc(O[C@@H]3CCc4c3ccc(C(F)(F)F)c4CN3CCC4(CC3)CC4)ccc21 [Example 8, {(S)-6-[(R)-4-(6-Aza-spiro[2.5]oct-6-ylmethyl)-5-trifluoromethyl-indan-1-yloxy]-2,3-dihydro-benzofuran-3-yl}-acetic acid]",5
9,"O=C(O)C[C@@H]1COc2cc(O[C@@H]3CCc4c3ccc(C(F)(F)F)c4CN3CCCOCC3)ccc21 [Example 9, {(S)-6-[(R)-[1,4]Oxazepan-4-ylmethyl-5-trifluoromethyl-indan-1-yloxy]-2,3-dihydro-benzofuran-3-yl}-acetic acid]",3
10,"COC1CCN(Cc2c(C(F)(F)F)ccc3c2CC[C@H]3Oc2ccc3c(c2)OC[C@H]3CC(=O)O)CC1 [Example 10, {(S)-6-[(R)-4-(4-Methoxy-piperidin-1-ylmethyl)-5-trifluoromethyl-indan-1-yloxy]-2,3-dihydro-benzofuran-3-yl}-acetic acid]",5
11,"O=C(O)C[C@@H]1COc2cc(O[C@@H]3CCc4c3ccc(C(F)(F)F)c4CN3CCC4(CCCO4)CC3)ccc21 [Example 11, {(S)-6-[(R)-4-(1-Oxa-8-aza-spiro[4.5]dec-8-ylmethyl)-5-trifluoromethyl-indan-1-yloxy]-2,3-dihydro-benzofuran-3-yl}-acetic acid]",6
12,"O=C(O)C[C@@H]1COc2cc(O[C@@H]3CCc4c3ccc(C(F)(F)F)c4CN3CC4CC4C3)ccc21 (stereo partly drawn) [Example 12, {(S)-6-[(R)-4-(3-Aza-bicyclo[3.1.0]hex-3-ylmethyl)-5-trifluoromethyl-indan-1-yloxy]-2,3-dihydro-benzofuran-3-yl}-acetic acid]",20
13,"O=C(O)C[C@@H]1COc2cc(O[C@@H]3CCc4c3ccc(C(F)(F)F)c4CN3CCC(CO)CC3)ccc21 [Example 13, {(S)-6-[(R)-4-(4-Hydroxymethyl-piperidin-1-ylmethyl)-5-trifluoromethyl-indan-1-yloxy]-2,3-dihydro-benzofuran-3-yl}-acetic acid]",9
14,"CC1(O)CCN(Cc2c(C(F)(F)F)ccc3c2CC[C@H]3Oc2ccc3c(c2)OC[C@H]3CC(=O)O)CC1 [Example 14, {(S)-6-[(R)-4-(4-Hydroxy-4-methyl-piperidin-1-ylmethyl)-5-trifluoromethyl-indan-1-yloxy]-2,3-dihydro-benzofuran-3-yl}-acetic acid]",15
15,"O=C(O)C[C@@H]1COc2cc(O[C@@H]3CCc4c3ccc(C(F)(F)F)c4CN3CCNCC3)ccc21 [Example 15, {(S)-6-[(R)-4-piperazin-1-ylmethyl-5-trifluoromethyl-indan-1-yloxy]-2,3-dihydro-benzofuran-3-yl}-acetic acid]",468
16,"CC(=O)N1CCN(Cc2c(C(F)(F)F)ccc3c2CC[C@H]3Oc2ccc3c(c2)OC[C@H]3CC(=O)O)CC1 [Example 16, {(S)-6-[(R)-4-(4-Acetyl-piperazin-1-ylmethyl)-5-trifluoromethyl-indan-1-yloxy]-2,3-dihydro-benzofuran-3-yl}-acetic acid]",16
17,"COC(=O)N1CCN(Cc2c(C(F)(F)F)ccc3c2CC[C@H]3Oc2ccc3c(c2)OC[C@H]3CC(=O)O)CC1 [Example 17, {(S)-6-[(R)-4-(4-Methoxycarbonyl-piperazin-1-ylmethyl)-5-trifluoromethyl-indan-1-yloxy]-2,3-dihydro-benzofuran-3-yl}-acetic acid]",4
18,"C[C@@H]1CN(Cc2c(C(F)(F)F)ccc3c2CC[C@H]3Oc2ccc3c(c2)OC[C@H]3CC(=O)O)C[C@H](C)O1 [Example 18, {(S)-6-[(R)-4-(cis-2,6-Dimethyl-morpholin-4-ylmethyl)-5-trifluoromethyl-indan-1-yloxy]-2,3-dihydro-benzofuran-3-yl}-acetic acid]",11
19,"O=C(O)C[C@@H]1COc2cc(O[C@@H]3CCc4c3ccc(C(F)(F)F)c4CN3CCCCCC3)ccc21 [Example 19, {(S)-6-[(R)-4-Azepan-1-ylmethyl-5-trifluoromethyl-indan-1-yloxy]-2,3-dihydro-benzofuran-3-yl}-acetic acid]",7
20,"CCOC(=O)N1CCN(Cc2c(C(F)(F)F)ccc3c2CC[C@H]3Oc2ccc3c(c2)OC[C@H]3CC(=O)O)CC1 [Example 20, {(S)-6-[(R)-4-(4-Ethoxycarbonyl-piperazin-1-ylmethyl)-5-trifluoromethyl-indan-1-yloxy]-2,3-dihydro-benzofuran-3-yl}-acetic acid]",9
21,"CCC(=O)N1CCN(Cc2c(C(F)(F)F)ccc3c2CC[C@H]3Oc2ccc3c(c2)OC[C@H]3CC(=O)O)CC1 [Example 21, {(S)-6-[(R)-4-(4-Propionyl-piperazin-1-ylmethyl)-5-trifluoromethyl-indan-1-yloxy]-2,3-dihydro-benzofuran-3-yl}-acetic acid]",12
22,"CC(C)OC(=O)N1CCN(Cc2c(C(F)(F)F)ccc3c2CC[C@H]3Oc2ccc3c(c2)OC[C@H]3CC(=O)O)CC1 [Example 22, {(S)-6-[(R)-4-(4-Isopropoxycarbonyl-piperazin-1-ylmethyl)-5-trifluoromethyl-indan-1-yloxy]-2,3-dihydro-benzofuran-3-yl}-acetic acid]",14
23,"CC1(C)CN(Cc2c(C(F)(F)F)ccc3c2CC[C@H]3Oc2ccc3c(c2)OC[C@H]3CC(=O)O)CCO1 [Example 23, {(S)-6-[(R)-4-(2,2-Dimethyl-morpholin-4-ylmethyl)-5-trifluoromethyl-indan-1-yloxy]-2,3-dihydro-benzofuran-3-yl}-acetic acid]",7
24,"O=C(O)C[C@@H]1COc2cc(O[C@@H]3CCc4c3ccc(C(F)(F)F)c4CN3CC4CCC(C3)O4)ccc21 [Example 24, {(S)-6-[(R)-4-(8-Oxa-3-aza-bicyclo[3.2.1]oct-3-ylmethyl)-5-trifluoromethyl-indan-1-yloxy]-2,3-dihydro-benzofuran-3-yl}-acetic acid]",14
25,"O=C(O)C[C@@H]1COc2cc(O[C@@H]3CCc4c3ccc(C(F)(F)F)c4CN3C4CCCC3CC4)ccc21 [Example 25, {(S)-6-[(R)-4-(8-Aza-bicyclo[3.2.1]oct-8-ylmethyl)-5-trifluoromethyl-indan-1-yloxy]-2,3-dihydro-benzofuran-3-yl}-acetic acid]",15
26,"CN1CCN(Cc2c(C(F)(F)F)ccc3c2CC[C@H]3Oc2ccc3c(c2)OC[C@H]3CC(=O)O)CC1=O [Example 26, {(S)-6-[(R)-4-(4-Methyl-3-oxo-piperazin-1-ylmethyl)-5-trifluoromethyl-indan-1-yloxy]-2,3-dihydro-benzofuran-3-yl}-acetic acid]",26
27,"O=C(O)C[C@@H]1COc2cc(O[C@@H]3CCc4c3ccc(C(F)(F)F)c4CN3CCn4ccnc4C3)ccc21 [Example 27, {(S)-6-[(R)-4-(5,6-Dihydro-8H-imidazo[1,2-a]pyrazin-7-ylmethyl)-5-trifluoromethyl-indan-1-yloxy]-2,3-dihydro-benzofuran-3-yl}-acetic acid]",17
28,"O=C(O)C[C@@H]1COc2cc(O[C@@H]3CCc4c3ccc(C(F)(F)F)c4CN3CCc4ncccc4C3)ccc21 [Example 28, {(S)-6-[(R)-4-(7,8-Dihydro-[1,6]naphthyridin-6-ylmethyl)-5-trifluoromethyl-indan-1-yloxy]-2,3-dihydro-benzofuran-3-yl}-acetic acid]",4
